This is an account of results in article PMC5589637, “New perspectives of cobalt tris(bipyridine) system: anti-cancer effect and its collateral sensitivity towards multidrug-resistant (MDR) cancers” (Oncotarget, 2017).

Common to all, as to format: cell-based
The test system of experiment [1] is HCT-8 taxol-sensitive cancer cells. Description: MTT cytotoxicity, taxol-sensitive HCT-8. Conditions: Homo sapiens, 72 h. From the text: (§1) All cells were obtained from the American Type Culture Collection (Rockville, MD, USA) unless otherwise specified. Immortalized wild-type and Atg7-deficient mouse embryonic fibroblasts (MEFs) were kindly provided by Professor Masaaki Komatsu (Juntendo University, School of Medicine, Japan). Taxol-resistant types of MCF-7, HCT-8, A549 cancers cells and cisplatin-resistant SGC7901 cancer cells were purchased from KeyGEN BioTECH, China. Cisplatin-sensitive or –resistant A2780, OV2008 and C13 cancer cells were kindly provided by Prof. Benjamin Tsang (Department of Obstetrics and Gynecology and Department of Cellular and Molecular Medicine, University of Ottawa, Canada). HCT116 p53^+/+ and p53^−/− isogenic human colon cancer cells were kindly provided by Professor Bert Vogelstein (Ludwig Center at Johns Hopkins, Howard Hughes Medical Institute, USA). All media were supplemented with 10% fetal bovine serum and antibiotics penicillin (50 U/ml) and streptomycin (50 μg/ml; Invitrogen, Paisley, Scotland, UK). All cell cultures were incubated at 37°C in a 5% humidified CO2 incubator.
(§2) All tested compounds were dissolved in DMSO at a final concentration of 50 mmol/L and stored at −20°C before use. Cytotoxicity was assessed by using the 3-(4,5-dimethylthiazol-2-yl)-2, 5-diphenyltetrazolium bromide (MTT) (5.0 mg/ml) assay as previously described. Briefly, 4×10^3 cells per well were seeded in 96-well plates before drug treatments. After overnight culture, the cells were then exposed to different concentrations of selected compounds ([…]) for 72 hours. Cells without drug treatment were used as control. Subsequently, MTT (10 μL) solution was added to each well and incubated at 37°C for 4 hours followed by the addition of 100 μL solubilization buffer (10%SDS in 0.01 mol/L HCl) and overnight incubation. A570 nm was then determined in each well on the next day. The percentage of cell viability was calculated using the following formula: Cell viability (%) = Atreated/Acontrol × 100. Data were obtained from three independent experiments.

Experiment [2] deals with A549 taxol-resistant cancer cells. Description: MTT cytotoxicity, taxol-resistant A549.
From the text: as §1, §2

Experiment [3] relates to HCT-8 taxol-resistant cancer cells. Briefly: MTT cytotoxicity, taxol-resistant HCT-8.
From the text: as §1, §2

Experiment [4] deals with A549 taxol-sensitive cancer cells. Description: MTT cytotoxicity, taxol-sensitive A549. The note with it: Homo sapiens, 72 h.
From the text: as §1, §2

Experiment [5] concerns MCF-7 taxol-sensitive cancer cells. Briefly: MTT cytotoxicity, taxol-sensitive MCF-7. The note with it: Homo sapiens, MCF7, 72 h.
From the text: as §1, §2

For experiment [6], the system named is taxol-resistant MCF-7, HCT-8, and A549 cancer cells. Briefly: MTT cytotoxicity, summary over taxol-sensitive/resistant MCF-7, HCT-8 and A549 pairs. Conditions: IC50 of taxol-resistant over taxol-sensitive cells; over MCF-7, HCT-8 and A549. How it is done: as §2
Experiment [7] deals with MCF-7 taxol-resistant cancer cells. Description: MTT cytotoxicity, taxol-resistant MCF-7.
From the text: as §1, §2

For experiment [8], the system named is A2780 cisplatin-resistant cancer cells. Briefly: MTT cytotoxicity, cisplatin-resistant A2780.
From the text: as §1, §2

The test system of experiment [9] is OV2008 (cisplatin-sensitive) cells. Briefly: MTT cytotoxicity, OV2008 (cisplatin-sensitive). Conditions: 72 h, read-out: IC50 value, cisplatin-sensitive cancer, OV2008.
From the text: as §1, §2

In experiment [10] the test system is C13 (cisplatin-resistant) cells. Description: MTT cytotoxicity, C13 (cisplatin-resistant).
From the text: as §1, §2

The test system of experiment [11] is A2780 cisplatin-sensitive cancer cells. Briefly: MTT cytotoxicity, cisplatin-sensitive A2780. The note with it: 72 h.
From the text: as §1, §2

Experiment [12] deals with SGC-7901 cisplatin-resistant cancer cells. Briefly: MTT cytotoxicity, cisplatin-resistant SGC-7901.
From the text: as §1, §2

The test system of experiment [13] is cisplatin-resistant cancer cells (A2780, SGC-7901, OV2008 and C13). Briefly: MTT cytotoxicity, summary over cisplatin-sensitive/resistant pairs. The note with it: over A2780, SGC-7901, OV2008/C13 pairs. How it is done:
as §2

Experiment [14] relates to SGC-7901 cisplatin-sensitive cancer cells. Briefly: MTT cytotoxicity, cisplatin-sensitive SGC-7901. The note with it: 72 h.
From the text: as §1, §2

The structures appear in SMILES notation. pIC50: −log10 of the molar value.

A word on the pIC50: it is −log10 of the IC50, conventionally taken in molar units. In the case of `CC(=O)O[C@H]1C(=O)[C@@]2(C)[C@H]([C@H](OC(=O)c3ccccc3)[C@]3(O)C[C@H](OC(=O)[C@H](O)[C@@H](NC(=O)c4ccccc4)c4ccccc4)C(C)=C1C3(C)C)[C@]1(OC(C)=O)CO[C@@H]1C[C@@H]2O` [Taxol, reference compound], the pIC50 in experiment [1] was 4.90; in [2] (Homo sapiens, A549 taxol-resistant, MTT, 72 h), 4.18; in experiment [3] (Homo sapiens, HCT-8 taxol-resistant, MTT, 72 h), less than 3.70; in experiment [4] it was 5.81; in experiment [5] it was 4.91; in experiment [7] (Homo sapiens, MCF7, MCF-7 taxol-resistant, MTT, 72 h), 4.26. In addition, the “Resistant Factor, A549” value in experiment [2] (IC50 of taxol-resistant cells over IC50 of taxol-sensitive cells, A549) amounted to 42.4. Moreover, in experiment [3] (IC50 of taxol-resistant cells over IC50 of taxol-sensitive cells, HCT-8), the “Resistant Factor, HCT-8” value was greater than 15.9. In addition, the “resistant factor in taxol-resistant cancers (summary)” value in experiment [6] is “up to 42.4”. In addition, the “Resistant Factor, MCF-7” value in experiment [7] (IC50 of taxol-resistant cells over IC50 of taxol-sensitive cells, MCF-7) came to 4.51.
Take `N.N.[Cl][Pt][Cl]` [Cisplatin, cis-[Pt^II(NH3)2Cl2], reference compound]: the pIC50 is less than 3.70 in experiment [8] (A2780 cisplatin-resistant, MTT, 72 h); 4.74 in [9]; less than 3.70 in [10] (C13 (cisplatin-resistant), MTT, 72 h, read-out: IC50 value, cisplatin-resistant cancer, C13); 4.82 in experiment [11]; 4.37 in [12] (SGC-7901 cisplatin-resistant, MTT, 72 h); 5.41 in experiment [14]. In addition, the “Resistant Factor, A2780” value in experiment [8] (cisplatin-resistant over cisplatin-sensitive IC50, A2780) is given as greater than 13.25. For the same compound, the “Resistant Factor, OV2008/C13 pair” value in [10] (C13 (resistant) IC50 over OV2008 (sensitive) IC50) is listed as greater than 11.0. Moreover, in experiment [12] (cisplatin-resistant over cisplatin-sensitive IC50, SGC-7901), the “Resistant Factor, SGC-7901” value was found to be 10.97. In [13], the “resistant factor in cisplatin-resistant cancers (summary)” value was “up to 13.25”.
